# Columns and labels:
# hSERT D328A = molecular target: T1, hSERT D328A (Homo sapiens, UniProt P31645, D328A); experiment: APP^+ uptake, hSERT D328A; assay type: cell-based; settings: S2 site mutant, read-out: SYR IC50 for Transport
# T1 construct: forward and reverse primers were used to amplify a full-length hSERT; expressed in transfected cells; host or cells: HeLa cells, transient, pcDNA3.1
# hSERT E494Q = molecular target: T2, hSERT E494Q (Homo sapiens, UniProt P31645, E494Q); experiment: APP^+ uptake, hSERT E494Q; assay type: cell-based; settings: S2 site mutant, read-out: SYR IC50 for Transport
# T2 construct: forward and reverse primers were used to amplify a full-length hSERT; expressed in transfected cells; host or cells: HeLa cells, transient, pcDNA3.1
# [1] = system: hSERT S1 mutants (Y95F, I172F, S438T); experiment: ASP^+ binding, S1 site mutants compared with WT; parameters: species or system human; settings: Tyr95 to Phe, Ile172 to Phe, Ser438 to Thr
# Method: HeLa cells were cultured in Dulbecco’s Modified Eagle’s Medium supplemented with 10% fetal bovine serum, 100 units/mL penicillin, and 100 μg/mL streptomycin at 37 °C in a humidified 5% CO2 incubator. Cells grown at ~70% confluence in a 6 cm culture dish were transfected with hSERT cDNA in pcDNA3.1 by lipofectamine 2000. Transfected cells were incubated for 12 h at 37 °C with 5% CO2 and then transferred into 96-well plates. After being grown for an additional 12–16 h, the cells were then assayed for APP^+ uptake or ASP^+ binding.
# ASP^+ binding to SERT expressed on the cell surface was measured with digitonin-permeabilized cells as described previously. The cells expressing WT or mutants of hSERT were incubated with 10 μM ASP^+ in the presence of 25 μg/mL digitonin at 22 °C for 5 min. After removing excess ASP^+ by 3× rapid washing, ASP^+ fluorescence retained in the cell membrane was determined by fluorescence spectrometry.
# hSERT mutants were generated using the Mut Express II Fast Mutagenesis kit (Vazyme, Nanjing, China). Briefly, forward and reverse primers were used to amplify a full-length hSERT. The PCR products were then digested with restriction enzymes, excised from agarose gels, and ligated into pcDNA3.1. All mutations were confirmed by full-length DNA sequencing.
# CUMS mice = experiment: Novelty suppressed feeding test (NSFT) in CUMS mice; assay type: in vivo, mouse
# Method: C57BL/6 adult (6–8 weeks, body weight, 18–22 g) male mice were maintained and handled in a standard condition at the Experimental Animal Center of Southern Medical University (Guangzhou, China). Animal use was approved by the Animal Use and Care Committee of Southern Medical University (approved code: SMUL2021177, approved date: 12 December 2021). The CUMS procedure was carried out according to a protocol described previously. Except for those in the control group, mice were randomly exposed to two mild unpredictable stressors per day for 3 weeks. The stressors included water deprivation, restraint, tilted cage, wet/no bedding, rotation, peppermint, noise, and inverted light off/on. Mice in the control group were group housed without any stressors throughout the procedure. […] NSFT was performed after 16 h food deprivation, as described previously. The mouse was placed in an open field (24 × 40 × 14 cm), where a new chow was put in the center, and the latency time to bite food was counted over 10 min. Home cage feeding within a 20 min period was measured after the test. FST was carried out according to a protocol described previously. The mouse was placed into a beaker (Bomex, Beijing, China) with a height of 18 cm filled with water (22 ± 1 °C) for 6 min. The immobile time was measured during minutes 2–6. TST was performed according to a previous description. The mouse was suspended from a hook that hung from a suspension bar by placing a piece of adhesive tape on its tail about 1 cm away from the tip. The immobile time during minutes 2–6 was measured.
# c-Fos [2] = experiment: c-Fos immunohistochemistry in mPFC of CUMS mice; assay type: in vivo, mouse; settings: 10 mg/kg i.p.
# Method: Figure 7 SYR effects on the expression of c-Fos and synaptic proteins in mPFC. (A) Representative immunohistochemical images of c-Fos expression in mPFC under the indicated treatments. Immunohistochemistry of c-Fos was performed with mPFC slices as described in Section 4. The slices were re-probed with anti-DAPI antibody. Immunofluorescence images for c-Fos (green) and DAPI (blue) were acquired by confocal microscopy. (B) Quantitative analysis for c-Fos expression in mPFC with various treatments. Protein expression is expressed as a percentage of c-Fos fluorescence measured in the control group. Bars represent the mean ± SEM (n = 4). * p < 0.05, ** p < 0.01 compared with the control or CUMS group by one-way ANOVA followed by post hoc tests, respectively. (C) Representative immunoblots of the synaptic proteins BDNF, PSD-95, GluA1, and vGluT1 with various treatments. (D–G) Quantification of the expression of the synaptic proteins BDNF (D), PSD-95 (E), GluA1 (F), and vGluT1 (G). The expression level is expressed as a percentage of the integrated density obtained from the control group. Bars represent the mean ± SEM (n = 4). * p < 0.05, ** p < 0.01 by one-way ANOVA followed by post hoc tests.
# Mouse mPFC and hippocampal slices were prepared as previously described. […]
# c-Fos [3] = experiment: c-Fos immunohistochemistry in hippocampus of CUMS mice; assay type: in vivo, mouse; settings: same dosage as fluoxetine (10 mg/kg i.p.)
# Text: Figure 8 SYR effects on the expression of c-Fos and synaptic proteins in the hippocampus. (A) Representative immunohistochemical images of c-Fos expression in the hippocampus with the indicated treatments. (B) Quantitative analysis for hippocampal c-Fos expression with various treatments. Protein expression level is expressed as a percentage of c-Fos fluorescence measured in the control group. Bars represent the mean ± SEM (n = 4). ** p < 0.01 compared with the control or CUMS group by one-way ANOVA followed by post hoc tests. (C) Representative immunoblots of the synaptic proteins BDNF, PSD-95, GluA1, and vGluT1 with various treatments. (D–G) Quantification of the expression of synaptic proteins BDNF (D), PSD-95 (E), GluA1 (F), and vGluT1 (G). The expression level is expressed as a percentage of the integrated density obtained from the control group. Bars represent the mean ± SEM (n = 4). * p < 0.05, ** p < 0.01 by one-way ANOVA followed by post hoc tests.
# Mouse mPFC and hippocampal slices were prepared as previously described. Briefly, mice were deeply anesthetized with 4% pentobarbital sodium (Sigma-Aldrich, Saint Louis, MI, USA), and perfused transcardially with PBS, followed by 4% phosphate-buffered paraformaldehyde. […]
# T1 sequence (P31645 whole entry D328A): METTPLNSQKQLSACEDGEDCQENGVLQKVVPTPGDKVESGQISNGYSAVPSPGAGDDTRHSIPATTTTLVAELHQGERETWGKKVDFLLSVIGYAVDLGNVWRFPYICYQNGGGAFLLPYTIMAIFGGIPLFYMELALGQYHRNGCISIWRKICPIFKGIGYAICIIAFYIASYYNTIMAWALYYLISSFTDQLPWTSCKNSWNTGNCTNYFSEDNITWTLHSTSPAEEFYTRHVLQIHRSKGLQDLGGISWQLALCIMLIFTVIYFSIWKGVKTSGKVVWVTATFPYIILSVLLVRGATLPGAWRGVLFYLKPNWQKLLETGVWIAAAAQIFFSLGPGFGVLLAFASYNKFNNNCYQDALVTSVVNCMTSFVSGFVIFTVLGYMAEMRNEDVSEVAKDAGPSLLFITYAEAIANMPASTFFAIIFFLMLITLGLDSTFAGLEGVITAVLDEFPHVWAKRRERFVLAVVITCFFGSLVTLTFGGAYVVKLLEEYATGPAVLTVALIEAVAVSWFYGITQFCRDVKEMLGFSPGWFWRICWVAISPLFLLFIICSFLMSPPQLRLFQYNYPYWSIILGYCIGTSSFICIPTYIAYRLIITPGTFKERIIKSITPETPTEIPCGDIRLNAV
# T2 sequence (P31645 whole entry E494Q): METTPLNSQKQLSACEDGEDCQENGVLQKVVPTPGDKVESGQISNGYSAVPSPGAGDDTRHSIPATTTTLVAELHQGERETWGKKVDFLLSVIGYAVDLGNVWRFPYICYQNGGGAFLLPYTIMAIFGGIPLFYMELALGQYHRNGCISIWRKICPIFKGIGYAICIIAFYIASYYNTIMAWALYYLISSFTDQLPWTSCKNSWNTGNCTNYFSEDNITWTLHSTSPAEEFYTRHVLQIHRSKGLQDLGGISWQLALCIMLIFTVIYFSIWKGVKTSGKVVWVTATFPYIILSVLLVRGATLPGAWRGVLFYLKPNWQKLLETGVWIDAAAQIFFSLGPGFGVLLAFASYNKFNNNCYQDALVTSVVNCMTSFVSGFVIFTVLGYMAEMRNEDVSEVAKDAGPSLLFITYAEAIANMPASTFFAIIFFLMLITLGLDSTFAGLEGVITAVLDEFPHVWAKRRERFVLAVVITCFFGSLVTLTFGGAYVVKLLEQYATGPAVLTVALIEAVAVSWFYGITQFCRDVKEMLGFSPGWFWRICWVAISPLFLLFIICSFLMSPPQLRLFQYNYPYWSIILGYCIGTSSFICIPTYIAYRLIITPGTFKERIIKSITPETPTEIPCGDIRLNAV
structure (smiles),measurement,setting,value
"COc1cc([C@@H]2OC[C@@H]3[C@H]2CO[C@H]3c2cc(OC)c(O)c(OC)c2)cc(OC)c1O [SYR, (-)-syringaresinol]",IC50,hSERT D328A,19.6 ± 1.21 µM
same,IC50,hSERT E494Q,12 ± 2.17 µM
same,effect of S1 site mutations on SYR inhibition of ASP^+ binding,[1],little effect
same,reversal of behavioral abnormalities in NSFT,"CUMS mice; 5 mg/kg, i.p., once per day day 7 to 21",did not exhibit a significant response
same,effect in NSFT,CUMS mice; 10 or 20 mg/kg (i.p.),remarkable antidepressant-like effects
same,CUMS-induced decrease in expression of c-Fos in mPFC,c-Fos [2],significantly elevated
same,CUMS-induced decrease in expression of c-Fos in the hippocampus,c-Fos [3],effectively alleviate

# — PMC11678425, “(-)-Syringaresinol Exerts an Antidepressant-like Activity in Mice by Noncompetitive Inhibition of the Serotonin Transporter” (Pharmaceuticals, 2024)
